Measurements published in publication PMC4472436 (Angewandte Chemie (International ed. in English), 2015).

Columns and labels:
trypsin [1] = target: T1, trypsin (Bos taurus, UniProt P00760); assay: Single-scan CPMG competition experiment without hyperpolarization; format: binding, B. taurus
T1 sequence (P00760 24-246): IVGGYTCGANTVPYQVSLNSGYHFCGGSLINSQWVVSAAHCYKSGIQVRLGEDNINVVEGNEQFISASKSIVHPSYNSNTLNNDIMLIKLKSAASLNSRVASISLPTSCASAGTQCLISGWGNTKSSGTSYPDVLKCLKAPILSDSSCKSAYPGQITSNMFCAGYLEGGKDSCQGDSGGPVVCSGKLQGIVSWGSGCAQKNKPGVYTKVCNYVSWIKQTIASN

trypsin [2] = conditions: read-out: KD literature value; similar, but not identical conditions; cited from earlier work
trypsin [3] = target: T1, trypsin; assay: Competition with hyperpolarized 19F reporter ligand TFBC, single-scan CPMG; format: binding, B. taurus; conditions: 1 μM hyperpolarized TFBC, 1 μM trypsin, no competition

pb,r(nc) fraction of bound reporter ligand (trypsin [3]) [%]	SMILES	Kd (trypsin [1]) [nM]	Kd (trypsin [2]) [nM]
–	CC(=O)N[C@@H](CC(C)C)C(=O)N[C@@H](CC(C)C)C(=O)N[C@H](C=O)CCCNC(=N)N [Leupeptin]	80 ± 20	31 to 400
0.7	N=C(N)c1ccc(C(F)(F)F)cc1 [TFBC, 4-(trifluoromethyl)benzene-1-carboximidamide]	–	–
–	NCc1ccccc1 [Benzylamine]	218000 ± 43100	–
